Reference: patent US20250176599A1, “FLAVOR COMPOSITION AND FOOD AND BEVERAGE” (TAKASAGO INTERNATIONAL CORPORATION, priority 2021, published 2025)

Key:
[1] = Sensory evaluation of aqueous solution V containing 1-octen-3-ol 10 ppb: off-flavor intensity and masking component intensity
Method in brief: (§1)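 Eight trained panelists tasted water solutions of the off-flavor compounds spiked with nootkatone. Masking-agent taste was scored absolutely from 0 (not sensed) to 4 (strong). Off-flavor was scored relatively, anchored at 4 for the solution without masker and 0 for ion-exchanged water.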

[2] = Sensory evaluation of aqueous solution VI containing 1,5-octadien-3-ol 10 ppb: off-flavor intensity and masking component intensity
Method in brief: as §1

[3] = Sensory evaluation of aqueous solution II containing (E)-2-octenal 10 ppb: off-flavor intensity and masking component intensity
Method in brief: as §1

[4] = Sensory evaluation of aqueous solution III containing 1-octen-3-one 1 ppb: off-flavor intensity and masking component intensity
Method in brief: as §1

[5] = Sensory evaluation of aqueous solution I containing (E)-2-nonenal 1 ppb: off-flavor intensity and masking component intensity
Method in brief: as §1

[6] = Overall conclusion of the sensory evaluation across aqueous solutions I to VI
Method in brief: as §1

[7] = Sensory evaluation of aqueous solution IV containing 1,5-octadien-3-one 100 ppt: off-flavor intensity and masking component intensity
Method in brief: as §1

[8] = 1 ppb added, average panel score
[9] = 1 ppm added, average panel score
[10] = 5 ppm added, average panel score
[11] = 10 ppb added, average panel score
[12] = 10 ppm added, average panel score
[13] = 10 ppt added, average panel score
[14] = 100 ppb added, average panel score
[15] = 100 ppt added, average panel score
[16] = aqueous solution VI, 1 ppb added, average panel score
[17] = aqueous solution VI, 1 ppm added, average panel score
[18] = aqueous solution VI, 5 ppm added, average panel score
[19] = aqueous solution VI, 10 ppb added, average panel score
[20] = aqueous solution VI, 10 ppm added, average panel score
[21] = aqueous solution VI, 10 ppt added, average panel score
[22] = aqueous solution VI, 100 ppb added, average panel score
[23] = aqueous solution VI, 100 ppt added, average panel score
[24] = aqueous solution IV, 1 ppb added, average panel score
[25] = aqueous solution IV, 1 ppm added, average panel score
[26] = aqueous solution IV, 5 ppm added, average panel score
[27] = aqueous solution IV, 10 ppb added, average panel score
[28] = aqueous solution IV, 10 ppm added, average panel score
[29] = aqueous solution IV, 10 ppt added, average panel score
[30] = aqueous solution IV, 100 ppb added, average panel score
[31] = aqueous solution IV, 100 ppt added, average panel score

## C=CC(C)(O)CCC=C(C)CCC=C(C)C (stereo not shown) [nerolidol]
[1]; [8]
  Masking Component Intensity: 0.6
  Off-Flavor Intensity: 2.6
[1]; [9]
  Masking Component Intensity: 2.6
  Off-Flavor Intensity: 1.6
[1]; [10]
  Masking Component Intensity: 3.5
  Off-Flavor Intensity: 1.0
[1]; [11]
  Masking Component Intensity: 0.9
  Off-Flavor Intensity: 2.5
[1]; [12]
  Masking Component Intensity: 3.9
  Off-Flavor Intensity: 0.6
[1]; [13]
  Masking Component Intensity: 0.1
  Off-Flavor Intensity: 3.6
[1]; [14]
  Masking Component Intensity: 1.4
  Off-Flavor Intensity: 2.1
[1]; [15]
  Masking Component Intensity: 0.3
  Off-Flavor Intensity: 3.1
[2]; [16]
  Masking Component Intensity: 0.3
  Off-Flavor Intensity: 3.1
[2]; [17]
  Masking Component Intensity: 2.5
  Off-Flavor Intensity: 1.8
[2]; [18]
  Masking Component Intensity: 3.5
  Off-Flavor Intensity: 1.1
[2]; [19]
  Masking Component Intensity: 0.8
  Off-Flavor Intensity: 2.4
[2]; [20]
  Masking Component Intensity: 3.9
  Off-Flavor Intensity: 0.8
[2]; [21]
  Masking Component Intensity: 0.0
  Off-Flavor Intensity: 3.5
[2]; [22]
  Masking Component Intensity: 1.3
  Off-Flavor Intensity: 2.1
[2]; [23]
  Masking Component Intensity: 0.1
  Off-Flavor Intensity: 3.3
[3]; [8]
  Masking Component Intensity: 0.4
  Off-Flavor Intensity: 2.6
[3]; [9]
  Masking Component Intensity: 2.4
  Off-Flavor Intensity: 1.5
[3]; [10]
  Masking Component Intensity: 3.4
  Off-Flavor Intensity: 0.8
[3]; [11]
  Masking Component Intensity: 0.8
  Off-Flavor Intensity: 2.3
[3]; [12]
  Masking Component Intensity: 3.8
  Off-Flavor Intensity: 0.5
[3]; [13]
  Masking Component Intensity: 0.0
  Off-Flavor Intensity: 3.4
[3]; [14]
  Masking Component Intensity: 1.5
  Off-Flavor Intensity: 1.9
[3]; [15]
  Masking Component Intensity: 0.1
  Off-Flavor Intensity: 3.0
[4]; [8]
  Masking Component Intensity: 0.4
  Off-Flavor Intensity: 3.0
[4]; [9]
  Masking Component Intensity: 2.1
  Off-Flavor Intensity: 1.5
[4]; [10]
  Masking Component Intensity: 3.4
  Off-Flavor Intensity: 0.9
[4]; [11]
  Masking Component Intensity: 0.8
  Off-Flavor Intensity: 2.5
[4]; [12]
  Masking Component Intensity: 3.6
  Off-Flavor Intensity: 0.4
[4]; [13]
  Masking Component Intensity: 0.1
  Off-Flavor Intensity: 3.6
[4]; [14]
  Masking Component Intensity: 1.5
  Off-Flavor Intensity: 2.0
[4]; [15]
  Masking Component Intensity: 0.3
  Off-Flavor Intensity: 3.4
[5]; [8]
  Masking Component Intensity: 0.4
  Off-Flavor Intensity: 2.8
[5]; [9]
  Masking Component Intensity: 2.0
  Off-Flavor Intensity: 1.6
[5]; [10]
  Masking Component Intensity: 2.9
  Off-Flavor Intensity: 1.0
[5]; [11]
  Masking Component Intensity: 0.6
  Off-Flavor Intensity: 2.4
[5]; [12]
  Masking Component Intensity: 3.8
  Off-Flavor Intensity: 0.8
[5]; [13]
  Masking Component Intensity: 0.1
  Off-Flavor Intensity: 3.6
[5]; [14]
  Masking Component Intensity: 1.1
  Off-Flavor Intensity: 2.0
[5]; [15]
  Masking Component Intensity: 0.3
  Off-Flavor Intensity: 3.3
[6]
  concentration that masks the off-flavor and does not affect the flavor of the food and/or beverage itself, lower limit: ≥ 100 ppt
  concentration that masks the off-flavor and does not affect the flavor of the food and/or beverage itself, upper limit: ≤ 5 ppm
[7]; [24]
  Masking Component Intensity: 0.4
  Off-Flavor Intensity: 3.1
[7]; [25]
  Masking Component Intensity: 2.0
  Off-Flavor Intensity: 2.3
[7]; [26]
  Masking Component Intensity: 3.0
  Off-Flavor Intensity: 1.9
[7]; [27]
  Masking Component Intensity: 0.6
  Off-Flavor Intensity: 3.0
[7]; [28]
  Masking Component Intensity: 3.6
  Off-Flavor Intensity: 1.4
[7]; [29]
  Masking Component Intensity: 0.1
  Off-Flavor Intensity: 3.6
[7]; [30]
  Masking Component Intensity: 1.3
  Off-Flavor Intensity: 2.6
[7]; [31]
  Masking Component Intensity: 0.1
  Off-Flavor Intensity: 3.4

## C=CC(C)(CCC=C(C)C)OC(=O)CCC (stereo not shown) [Linalyl Butyrate, linalyl butyrate]
[1]; 1 ppb added, 1-octen-3-ol 10 ppb, average score 0-4
  Off-Flavor Intensity: 2.6 points
[1]; 1 ppm added, 1-octen-3-ol 10 ppb, average score 0-4
  Off-Flavor Intensity: 1.0 points
[1]; 5 ppm added, 1-octen-3-ol 10 ppb, average score 0-4
  Off-Flavor Intensity: 0.8 points
[1]; 10 ppb added, 1-octen-3-ol 10 ppb, average score 0-4
  Off-Flavor Intensity: 2.3 points
[1]; 10 ppt added, 1-octen-3-ol 10 ppb, average score 0-4
  Off-Flavor Intensity: 3.3 points
[1]; 50 ppb added, 1-octen-3-ol 10 ppb, average score 0-4
  Off-Flavor Intensity: 2.1 points
[1]; 100 ppb added, 1-octen-3-ol 10 ppb, average score 0-4
  Off-Flavor Intensity: 1.9 points
[1]; 100 ppt added, 1-octen-3-ol 10 ppb, average score 0-4
  Off-Flavor Intensity: 3.0 points
[1]; 500 ppb added, 1-octen-3-ol 10 ppb, average score 0-4
  Off-Flavor Intensity: 1.3 points
[2]; 1 ppb added, aqueous solution VI, 1,5-octadien-3-ol 10 ppb, average score 0-4
  Off-Flavor Intensity: 2.0 points
[2]; 1 ppm added, aqueous solution VI, 1,5-octadien-3-ol 10 ppb, average score 0-4
  Off-Flavor Intensity: 0.5 points
[2]; 5 ppm added, aqueous solution VI, 1,5-octadien-3-ol 10 ppb, average score 0-4
  Off-Flavor Intensity: 0.1 points
[2]; 10 ppb added, aqueous solution VI, 1,5-octadien-3-ol 10 ppb, average score 0-4
  Off-Flavor Intensity: 1.8 points
[2]; 10 ppt added, aqueous solution VI, 1,5-octadien-3-ol 10 ppb, average score 0-4
  Off-Flavor Intensity: 2.5 points
[2]; 50 ppb added, aqueous solution VI, 1,5-octadien-3-ol 10 ppb, average score 0-4
  Off-Flavor Intensity: 1.5 points
[2]; 100 ppb added, aqueous solution VI, 1,5-octadien-3-ol 10 ppb, average score 0-4
  Off-Flavor Intensity: 1.3 points
[2]; 100 ppt added, aqueous solution VI, 1,5-octadien-3-ol 10 ppb, average score 0-4
  Off-Flavor Intensity: 2.4 points
[2]; 500 ppb added, aqueous solution VI, 1,5-octadien-3-ol 10 ppb, average score 0-4
  Off-Flavor Intensity: 0.9 points
[3]; 1 ppb added, (E)-2-octenal 10 ppb, average score 0-4
  Off-Flavor Intensity: 2.3 points
[3]; 1 ppm added, (E)-2-octenal 10 ppb, average score 0-4
  Off-Flavor Intensity: 0.6 points
[3]; 5 ppm added, (E)-2-octenal 10 ppb, average score 0-4
  Off-Flavor Intensity: 0.4 points
[3]; 10 ppb added, (E)-2-octenal 10 ppb, average score 0-4
  Off-Flavor Intensity: 1.8 points
[3]; 10 ppt added, (E)-2-octenal 10 ppb, average score 0-4
  Off-Flavor Intensity: 3.1 points
[3]; 50 ppb added, (E)-2-octenal 10 ppb, average score 0-4
  Off-Flavor Intensity: 1.5 points
[3]; 100 ppb added, (E)-2-octenal 10 ppb, average score 0-4
  Off-Flavor Intensity: 1.4 points
[3]; 100 ppt added, (E)-2-octenal 10 ppb, average score 0-4
  Off-Flavor Intensity: 2.8 points
[3]; 500 ppb added, (E)-2-octenal 10 ppb, average score 0-4
  Off-Flavor Intensity: 0.9 points
[4]; 1 ppb added, 1-octen-3-one 1 ppb, average score 0-4
  Off-Flavor Intensity: 2.6 points
[4]; 1 ppm added, 1-octen-3-one 1 ppb, average score 0-4
  Off-Flavor Intensity: 1.5 points
[4]; 5 ppm added, 1-octen-3-one 1 ppb, average score 0-4
  Off-Flavor Intensity: 1.0 points
[4]; 10 ppb added, 1-octen-3-one 1 ppb, average score 0-4
  Off-Flavor Intensity: 2.3 points
[4]; 10 ppt added, 1-octen-3-one 1 ppb, average score 0-4
  Off-Flavor Intensity: 3.5 points
[4]; 50 ppb added, 1-octen-3-one 1 ppb, average score 0-4
  Off-Flavor Intensity: 1.9 points
[4]; 100 ppb added, 1-octen-3-one 1 ppb, average score 0-4
  Off-Flavor Intensity: 1.9 points
[4]; 100 ppt added, 1-octen-3-one 1 ppb, average score 0-4
  Off-Flavor Intensity: 3.3 points
[4]; 500 ppb added, 1-octen-3-one 1 ppb, average score 0-4
  Off-Flavor Intensity: 1.8 points
[5]; 1 ppb added, (E)-2-nonenal 1 ppb, average score 0-4
  Off-Flavor Intensity: 2.6 points
[5]; 1 ppm added, (E)-2-nonenal 1 ppb, average score 0-4
  Off-Flavor Intensity: 1.3 points
[5]; 5 ppm added, (E)-2-nonenal 1 ppb, average score 0-4
  Off-Flavor Intensity: 1.0 points
[5]; 10 ppb added, (E)-2-nonenal 1 ppb, average score 0-4
  Off-Flavor Intensity: 2.3 points
[5]; 10 ppt added, (E)-2-nonenal 1 ppb, average score 0-4
  Off-Flavor Intensity: 3.4 points
[5]; 50 ppb added, (E)-2-nonenal 1 ppb, average score 0-4
  Off-Flavor Intensity: 2.0 points
[5]; 100 ppb added, (E)-2-nonenal 1 ppb, average score 0-4
  Off-Flavor Intensity: 1.9 points
[5]; 100 ppt added, (E)-2-nonenal 1 ppb, average score 0-4
  Off-Flavor Intensity: 3.1 points
[5]; 500 ppb added, (E)-2-nonenal 1 ppb, average score 0-4
  Off-Flavor Intensity: 1.3 points
[6]
  concentration that masks the off-flavor and does not affect the flavor of the food and/or beverage itself, lower limit: ≥ 10 ppt
  concentration that masks the off-flavor and does not affect the flavor of the food and/or beverage itself, upper limit: ≤ 1 ppm
[7]; 1 ppb added, aqueous solution IV, 1,5-octadien-3-one 100 ppt, average score 0-4
  Off-Flavor Intensity: 2.9 points
[7]; 1 ppm added, aqueous solution IV, 1,5-octadien-3-one 100 ppt, average score 0-4
  Off-Flavor Intensity: 0.9 points
[7]; 5 ppm added, aqueous solution IV, 1,5-octadien-3-one 100 ppt, average score 0-4
  Off-Flavor Intensity: 0.9 points
[7]; 10 ppb added, aqueous solution IV, 1,5-octadien-3-one 100 ppt, average score 0-4
  Off-Flavor Intensity: 2.6 points
[7]; 10 ppt added, aqueous solution IV, 1,5-octadien-3-one 100 ppt, average score 0-4
  Off-Flavor Intensity: 3.6 points
[7]; 50 ppb added, aqueous solution IV, 1,5-octadien-3-one 100 ppt, average score 0-4
  Off-Flavor Intensity: 2.1 points
[7]; 100 ppb added, aqueous solution IV, 1,5-octadien-3-one 100 ppt, average score 0-4
  Off-Flavor Intensity: 1.6 points
[7]; 100 ppt added, aqueous solution IV, 1,5-octadien-3-one 100 ppt, average score 0-4
  Off-Flavor Intensity: 3.0 points
[7]; 500 ppb added, aqueous solution IV, 1,5-octadien-3-one 100 ppt, average score 0-4
  Off-Flavor Intensity: 1.3 points
